US20140205537A1, “LRRK2 INHIBITORS” (ZENOBIA THERAPEUTICS, INC., priority 2011, published 2014)

Molecular target: G2019S LRRK2 (Homo sapiens, UniProt Q5S007, G2019S)
Assay: DiscoveRx KINOMEscan binding constant (Kd)
Set-up: purchased DiscoveRx (KINOMEscan service); host or cells: E. coli BL21-derived host (T7 phage) or HEK-293
Procedure: Compounds of formulas (II), (I), (I-A), (I-B), (I-C), (I-D), (I-D-1), (I-D-2), (I-E), (I-F), (I-G), (I-H), (I-I), (I-I-1), (I-I-2), (I-J), (I-K), (I-L), (I-M), (I-N), (I-Z-1), (I-Z-2), (I-Z-2-a), (I-Z-2-b), (I-Z-2-c), (I-Z-2-d), (I-Z-3-a), (I-Z-3-b), (I-Z-3-c), or (I-Z-3-d) were tested using DiscoveRx's KINOMEscan™ technology to measure a binding constant (Kd) to wild type and G2019S LRRK2. Kinase-tagged T7 phage strains were prepared in an E. coli host derived from the BL21 strain. E. coli were grown to log-phase and infected with T7 phage and incubated with shaking at 32° C. until lysis. The lysates were centrifuged and filtered to remove cell debris. The remaining kinases were produced in HEK-293 cells and subsequently tagged with DNA for qPCR detection. Streptavidin-coated magnetic beads were treated with biotinylated small molecule ligands for 30 minutes at room temperature to generate affinity resins for kinase assays. The liganded beads were blocked with excess biotin and washed with blocking buffer (SeaBlock (Pierce), 1% BSA, 0.05% Tween 20, 1 mM DTT) to remove unbound ligand and to reduce non-specific binding. Binding reactions were assembled by combining kinases, liganded affinity beads, and test compounds in 1× binding buffer (20% SeaBlock, 0.17×PBS, 0.05% Tween 20, 6 mM DTT). All reactions were performed in polystyrene 96-well plates in a final volume of 0.135 ml. The assay plates were incubated at room temperature with shaking for 1 hour and the affinity beads were washed with wash buffer (lx PBS, 0.05% Tween 20). The beads were then re-suspended in elution buffer (lx PBS, 0.05% Tween 20, 0.5 μM non-biotinylated affinity ligand) and incubated at room temperature with shaking for 30 minutes. The kinase concentration in the eluates was measured by qPCR. An 11-point 3-fold serial dilution of each test compound was prepared in 100% DMSO at 100× final test concentration and subsequently diluted to 1× in the assay (final DMSO concentration=[…]). Most Kds were determined using a compound top concentration=30,000 nM.

G2019S LRRK2, sequence (Q5S007 whole entry G2019S): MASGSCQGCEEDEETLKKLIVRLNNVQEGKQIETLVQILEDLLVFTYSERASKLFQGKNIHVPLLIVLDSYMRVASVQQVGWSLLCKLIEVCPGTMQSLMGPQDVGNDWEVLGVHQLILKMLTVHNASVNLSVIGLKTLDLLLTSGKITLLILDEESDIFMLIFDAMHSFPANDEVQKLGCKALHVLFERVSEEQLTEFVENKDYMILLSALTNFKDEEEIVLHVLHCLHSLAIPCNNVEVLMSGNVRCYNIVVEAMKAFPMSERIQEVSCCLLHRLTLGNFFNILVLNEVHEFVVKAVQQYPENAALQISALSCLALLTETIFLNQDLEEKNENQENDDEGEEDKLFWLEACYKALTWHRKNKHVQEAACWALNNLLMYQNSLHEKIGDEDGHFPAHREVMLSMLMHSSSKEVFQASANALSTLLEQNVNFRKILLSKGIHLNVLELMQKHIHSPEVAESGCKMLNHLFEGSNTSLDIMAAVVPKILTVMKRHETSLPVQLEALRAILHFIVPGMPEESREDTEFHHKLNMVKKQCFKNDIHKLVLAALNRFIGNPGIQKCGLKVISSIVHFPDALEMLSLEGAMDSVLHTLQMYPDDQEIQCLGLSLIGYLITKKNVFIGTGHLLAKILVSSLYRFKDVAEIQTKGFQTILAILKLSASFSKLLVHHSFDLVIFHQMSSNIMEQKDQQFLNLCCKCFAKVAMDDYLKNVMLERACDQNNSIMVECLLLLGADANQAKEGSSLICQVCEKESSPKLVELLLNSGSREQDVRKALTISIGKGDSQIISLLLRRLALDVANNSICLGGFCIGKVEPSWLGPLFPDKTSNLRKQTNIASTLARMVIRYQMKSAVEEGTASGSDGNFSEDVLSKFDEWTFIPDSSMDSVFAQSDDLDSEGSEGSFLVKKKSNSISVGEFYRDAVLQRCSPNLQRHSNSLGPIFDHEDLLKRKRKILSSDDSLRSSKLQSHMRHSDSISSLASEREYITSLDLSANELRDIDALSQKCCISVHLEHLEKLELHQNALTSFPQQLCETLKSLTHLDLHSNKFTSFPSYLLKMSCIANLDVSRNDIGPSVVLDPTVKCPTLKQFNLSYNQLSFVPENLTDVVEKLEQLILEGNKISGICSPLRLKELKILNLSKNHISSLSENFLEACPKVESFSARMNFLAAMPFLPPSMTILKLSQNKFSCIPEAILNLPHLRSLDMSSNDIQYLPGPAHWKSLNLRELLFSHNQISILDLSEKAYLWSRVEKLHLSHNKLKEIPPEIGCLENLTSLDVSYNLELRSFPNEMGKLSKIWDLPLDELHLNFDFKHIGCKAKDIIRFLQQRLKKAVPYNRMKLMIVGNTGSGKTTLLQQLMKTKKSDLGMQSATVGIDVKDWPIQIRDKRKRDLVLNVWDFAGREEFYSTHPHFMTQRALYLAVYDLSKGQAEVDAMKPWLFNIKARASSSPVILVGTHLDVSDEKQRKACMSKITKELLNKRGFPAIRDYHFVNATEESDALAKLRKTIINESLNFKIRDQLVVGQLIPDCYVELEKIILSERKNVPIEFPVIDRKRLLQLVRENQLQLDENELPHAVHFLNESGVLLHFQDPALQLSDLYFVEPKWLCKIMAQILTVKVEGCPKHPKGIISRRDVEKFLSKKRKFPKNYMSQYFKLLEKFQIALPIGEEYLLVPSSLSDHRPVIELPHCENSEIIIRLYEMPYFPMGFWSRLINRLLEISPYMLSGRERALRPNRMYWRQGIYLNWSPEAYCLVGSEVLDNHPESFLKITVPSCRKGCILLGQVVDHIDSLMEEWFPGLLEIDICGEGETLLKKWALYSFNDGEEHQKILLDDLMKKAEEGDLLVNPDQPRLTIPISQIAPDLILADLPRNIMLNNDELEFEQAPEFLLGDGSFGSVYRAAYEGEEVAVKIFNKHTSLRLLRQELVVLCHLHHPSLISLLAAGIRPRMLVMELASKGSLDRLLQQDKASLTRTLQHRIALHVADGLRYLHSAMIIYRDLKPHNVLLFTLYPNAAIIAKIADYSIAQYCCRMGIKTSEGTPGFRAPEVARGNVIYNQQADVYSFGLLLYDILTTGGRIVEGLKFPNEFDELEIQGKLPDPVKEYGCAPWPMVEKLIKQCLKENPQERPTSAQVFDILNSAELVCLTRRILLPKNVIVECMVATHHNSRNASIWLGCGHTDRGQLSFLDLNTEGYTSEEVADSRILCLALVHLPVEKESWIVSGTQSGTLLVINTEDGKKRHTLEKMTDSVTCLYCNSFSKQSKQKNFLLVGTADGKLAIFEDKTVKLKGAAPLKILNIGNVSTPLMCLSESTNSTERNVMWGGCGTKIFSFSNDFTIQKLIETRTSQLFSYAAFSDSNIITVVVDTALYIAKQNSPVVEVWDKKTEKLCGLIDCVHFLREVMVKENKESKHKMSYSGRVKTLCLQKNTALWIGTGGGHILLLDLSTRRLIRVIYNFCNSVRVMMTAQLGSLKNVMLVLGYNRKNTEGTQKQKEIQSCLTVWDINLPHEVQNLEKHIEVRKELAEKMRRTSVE

Row | Kd (numeric value) [µM] | Kd (class symbol) [µM] | Structure (SMILES)
1 | 0.041 | – | CCN1CCN(c2ncc(/C=C3\C(=O)Nc4cc(F)c(OC(C)C)cc43)[nH]2)CC1 [Compound 44, (3Z)-3-[[2-(4-ethylpiperazin-1-yl)-1H-imidazol-5-yl]methylene]-6-fluoro-5-isopropoxy-indolin-2-one]
2 | 0.0475 | – | O=C1Nc2ccc(OCCF)cc2/C1=C/c1cnc(C2CCOCC2)[nH]1 [Compound 34, (3Z)-5-(2-fluoroethoxy)-3-[(2-tetrahydropyran-4-yl-1H-imidazol-5-yl)methylene]indolin-2-one]
3 | 0.0325 | – | CC(C)Cc1ncc(/C=C2\C(=O)Nc3ccc(OC(C)C)cc32)[nH]1 [Compound 22, (3Z)-3-[(2-isobutyl-1H-imidazol-5-yl)methylene]-5-isopropoxy-indolin-2-one]
4 | 0.057 | – | C/C(=C1/C(=O)Nc2cc(F)c(OC(C)C)cc21)c1cnc(N2CCOCC2)[nH]1 [Compound 42, (3Z)-6-fluoro-5-isopropoxy-3-[1-(2-morpholino-1H-imidazol-5-yl)ethylidene]indolin-2-one]
5 | 0.45 | – | COCCc1ncc(/C=C2\C(=O)Nc3ccc(OC)cc32)[nH]1 [Compound 24, (3Z)-5-methoxy-3-[[2-(2-methoxyethyl)-1H-imidazol-5-yl]methylene]indolin-2-one]
6 | 0.25 | – | CC(C)Oc1ccc2c(n1)/C(=C/c1cnc(C3CCOCC3)[nH]1)C(=O)N2 [Compound 46, (3Z)-5-isopropoxy-3-[(2-tetrahydropyran-4-yl-1H-imidazol-5-yl)methylene]-1H-pyrrolo[3,2-b]pyridin-2-one]
7 | 0.42 | – | CC(C)Oc1ccc2c(c1)/C(=C/c1cnc(CN3CCOCC3)[nH]1)C(=O)N2 [Compound 23, (3Z)-5-isopropoxy-3-[[2-(morpholinomethyl)-1H-imidazol-5-yl]methylene]indolin-2-one]
8 | 0.034 | – | CC(C)Oc1cc2c(cc1F)NC(=O)/C2=C\c1cnc(C2CCN(CCF)CC2)[nH]1 [Compound 43, (3Z)-6-fluoro-3-[[2-[1-(2-fluoroethyl)-4-piperidyl]-1H-imidazol-5-yl]methylene]-5-isopropoxy-indolin-2-one]
9 | 12.5 | – | CC(C)Oc1ccc2c(c1)/C(=C/c1nnc(C(C)C)[nH]1)C(=O)N2 [Compound 26, (3Z)-5-isopropoxy-3-[(5-isopropyl-4H-1,2,4-triazol-3-yl)methylene]indolin-2-one]
10 | > 30 | ≥ 1 | CCc1nnc(/C=C2\C(=O)Nc3ccc(OC)cc32)[nH]1 [Compound 25, (3Z)-3-[(5-ethyl-4H-1,2,4-triazol-3-yl)methylene]-5-methoxy-indolin-2-one]
11 | 0.025 | – | CC(C)Oc1cc2c(cc1F)NC(=O)/C2=C\c1cnc(C2CCOCC2)[nH]1 [Compound 41, (3Z)-6-fluoro-5-isopropoxy-3-[(2-tetrahydropyran-4-yl-1H-imidazol-5-yl)methylene]indolin-2-one]
12 | 0.067 | – | CC(C)Oc1cc(F)c2c(c1)/C(=C/c1cnc(N3CCOCC3)[nH]1)C(=O)N2 [Compound 36, (3Z)-7-fluoro-5-isopropoxy-3-[(2-morpholino-1H-imidazol-5-yl)methylene]indolin-2-one]
13 | 0.26 | – | CC(C)Oc1cc2c(cn1)NC(=O)/C2=C\c1cnc(C2CCOCC2)[nH]1 [Compound 45, (3Z)-5-isopropoxy-3-[(2-tetrahydropyran-4-yl-1H-imidazol-5-yl)methylene]-1H-pyrrolo[2,3-c]pyridin-2-one]
14 | 0.15 | – | COc1ccc2c(c1)/C(=C/c1cnc(-c3c(F)cccc3F)[nH]1)C(=O)N2 [Compound 20, (3Z)-3-[[2-(2,6-difluorophenyl)-1H-imidazol-5-yl]methylene]-5-methoxy-indolin-2-one]
15 | 0.054 | – | CCc1ccc2c(c1)/C(=C/c1cnc(C3CCOCC3)[nH]1)C(=O)N2 [Compound 29, (3Z)-5-ethyl-3-[(2-tetrahydropyran-4-yl-1H-imidazol-5-yl)methylene]indolin-2-one]
16 | 0.15 | – | O=C1Nc2ccc(Cl)cc2/C1=C/c1cnc(C2CCN(CCF)CC2)[nH]1 [Compound 33, (3Z)-5-chloro-3-[[2-[1-(2-fluoroethyl)-4-piperidyl]-1H-imidazol-5-yl]methylene]indolin-2-one]
17 | 0.024 | – | CC(C)Oc1cc2c(cc1F)NC(=O)/C2=C\c1cnc(N2CCOCC2)[nH]1 [Compound 37, (3Z)-6-fluoro-5-isopropoxy-3-[(2-morpholino-1H-imidazol-5-yl)methylene]indolin-2-one]
18 | 0.028 | – | CC(C)Oc1ccc2c(c1)/C(=C/c1cnc(C3CCOCC3)[nH]1)C(=O)N2 [Compound 30, (3Z)-5-isopropoxy-3-[(2-tetrahydropyran-4-yl-1H-imidazol-5-yl)methylene]indolin-2-one]
19 | 0.022 | – | C/C(=C1/C(=O)Nc2ccc(OC(C)C)cc21)c1cnc(N2CCOCC2)[nH]1 [Compound 40, (3Z)-5-isopropoxy-3-[1-(2-morpholino-1H-imidazol-5-yl)ethylidene]indolin-2-one]
20 | 0.0165 | – | CC(C)Oc1ccc2c(c1)/C(=C/c1cnc(C(C)C)[nH]1)C(=O)N2 [Compound 21, (3Z)-5-isopropoxy-3-[(2-isopropyl-1H-imidazol-5-yl)methylene]indolin-2-one]
21 | 0.123 | – | CC(C)Oc1ccc2c(c1)/C(=C/c1ncc(C3CCOCC3)[nH]1)C(=O)N2 [Compound 39, (3Z)-5-isopropoxy-3-[(5-tetrahydropyran-4-yl-1H-imidazol-2-yl)methylene]indolin-2-one]
22 | 0.043 | – | CC(C)Oc1ccc2c(c1)/C(=C/c1cnc(C3CCN(CCF)CC3)[nH]1)C(=O)N2 [Compound 31, (3Z)-3-[[2-[1-(2-fluoroethyl)-4-piperidyl]-1H-imidazol-5-yl]methylene]-5-isopropoxy-indolin-2-one]
23 | 0.0155 | – | CC(C)Oc1ccc2c(c1)/C(=C/c1cnc(N3CCOCC3)[nH]1)C(=O)N2 [Compound 27, (3Z)-5-isopropoxy-3-[(2-morpholino-1H-imidazol-5-yl)methylene]indolin-2-one]
24 | 0.032 | – | CC(C)Oc1ccc2c(c1)/C(=C/c1cnc(N(C)C)[nH]1)C(=O)N2 [Compound 35, (3Z)-3-[[2-(dimethylamino)-1H-imidazol-5-yl]methylene]-5-isopropoxy-indolin-2-one]
25 | – | ≥ 1 | CC(C)Oc1ccc2c(c1F)/C(=C/c1cnc(N3CCOCC3)[nH]1)C(=O)N2 [Compound 38, (3Z)-4-fluoro-5-isopropoxy-3-[(2-morpholino-1H-imidazol-5-yl)methylene]indolin-2-one]
26 | 0.059 | – | O=C1Nc2ccc(Cl)cc2/C1=C/c1cnc(C2CCOCC2)[nH]1 [Compound 32, (3Z)-5-chloro-3-[(2-tetrahydropyran-4-yl-1H-imidazol-5-yl)methylene]indolin-2-one]
27 | 0.068 | – | O=C1Nc2ccc(O)cc2/C1=C/c1cnc(C2CCOCC2)[nH]1 [Compound 28, (3Z)-5-hydroxy-3-[(2-tetrahydropyran-4-yl-1H-imidazol-5-yl)methylene]indolin-2-one]
